From patent publication US9371294B2, “Cycloalkenyl aryl derivatives for CETP inhibitor” (CHONG KUN DANG PHARMACEUTICAL CORP., priority 2011, dated 2016)

Molecular target: T1, cholesteryl ester transfer protein (Homo sapiens, UniProt P11597)
T1 construct: As a source of cholesteryl ester transfer protein, plasma from healthy humans was used; from tissue; host or cells: plasma from healthy humans
T1 sequence (P11597 18-493): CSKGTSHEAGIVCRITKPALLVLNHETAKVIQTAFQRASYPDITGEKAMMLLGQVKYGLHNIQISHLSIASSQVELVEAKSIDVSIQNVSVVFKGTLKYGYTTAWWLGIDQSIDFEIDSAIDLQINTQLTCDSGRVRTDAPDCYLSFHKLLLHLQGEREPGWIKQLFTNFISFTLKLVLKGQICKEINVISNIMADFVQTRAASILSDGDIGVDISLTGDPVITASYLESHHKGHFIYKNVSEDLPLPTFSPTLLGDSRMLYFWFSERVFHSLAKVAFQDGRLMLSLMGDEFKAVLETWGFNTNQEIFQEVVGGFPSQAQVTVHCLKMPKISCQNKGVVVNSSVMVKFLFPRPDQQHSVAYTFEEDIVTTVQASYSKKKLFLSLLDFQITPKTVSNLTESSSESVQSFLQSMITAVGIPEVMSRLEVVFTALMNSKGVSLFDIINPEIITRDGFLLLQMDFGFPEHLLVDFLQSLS
Experiment: In vitro test for the ability to inhibit cholesteryl ester transfer
Type: biochemical
Conditions: [3H]-cholesteryl oleate transfer from rHDL-agarose to LDL; human plasma as CETP source; 37° C.; 16-10000 nM, duplicate
Excerpt: In Vitro Test for the Ability to Inhibit Cholesteryl Ester Transfer
1. Preparation of Cholesteryl Ester Donor
In order to prepare a cholesteryl ester donor to be used in the test, a radiolabeled recombinant HDL containing [^3H]-cholesteryl oleate (GE healthcare, TRK886, 3.5 μCi/mg of apoA-1) and apoA-1 was synthesized. Then, rHDL-agarose obtained by immobilizing the recombinant HDL with CNBr-activated Sepharose 4B resin (Amersham Biosciences, Sweden) was used in the test.
2. Cholesteryl Ester Transfer Test
As a source of cholesteryl ester transfer protein, plasma from healthy humans was used, and as cholesteryl ester receptor, LDL from healthy humans was used. Each of test compounds was added to be final concentrations of 16, 80, 400, 2000 and 10000 nM and tested in duplicate. In order to test cholesteryl ester transfer, 20 μl of plasma, 50 μl of LDL (0.25 mg/ml) and 50 μl of rHDL-agarose (0.25 mg/ml) were mixed with each other, and a solution of each test compound was added thereto and reacted thereto at 37° C. Then, the reaction solution was centrifuged at 4° C. for 3 minutes, thereby the reaction was stopped. 150 μl of the supernatant was transferred into a 96-well plate for radioactivity measurement, and the radioactivity thereof was measured with a beta-ray detector.
3. Statistical Processing
The ratio of [^3H]-cholesteryl oleate transferred from HDL to LDL was determined, and based on the determined ratio, the IC50 value of each compound was determined using GraphPad Prism 5.0.

Row | SMILES | IC50
1 | COc1ccccc1C1=C(CN2C(=O)O[C@H](c3cc(C(F)(F)F)cc(C(F)(F)F)c3)[C@@H]2C)CC(C)(C)CC1 [Compound 18, (4S,5R)-5-(3,5-bis(trifluoromethyl)phenyl)-3-((2-(2-methoxyphenyl)-5,5-dimethylcyclohex-1-enyl)methyl)-4-methyloxazolidin-2-one] | 1360 nM
2 | COc1cc(F)c(C(C)C)cc1C1=C(CN2C(=S)O[C@H](c3cc(C(F)(F)F)cc(C(F)(F)F)c3)[C@@H]2C)CCCC1 [Compound 28, (4S,5R)-5-(3,5-bis(trifluoromethyl)phenyl)-3-((2-(4-fluoro-5-isopropyl-2-methoxyphenyl)cyclohex-1-enyl)methyl)-4-methyloxazolidine-2-thione] | 390 nM
3 | COc1ccc(C(C)C)cc1C1=C(CN2C(=O)O[C@H](c3cc(C(F)(F)F)cc(C(F)(F)F)c3)[C@@H]2C)CCC(C)(C)C1 [Compound 44, (4S,5R)-5-(3,5-bis(trifluoromethyl)phenyl)-3-((2-(5-isopropyl-2-methoxyphenyl)-4,4-dimethylcyclohex-1-enyl)methyl)-4-methyloxazolidin-2-one] | 430 nM
4 | COc1ccc(C(C)O)cc1C1=C(CN2C(=O)O[C@H](c3cc(C(F)(F)F)cc(C(F)(F)F)c3)[C@@H]2C)CCCC1 (stereo partly drawn) [Compound 80, (4S,5R)-5-(3,5-bis(trifluoromethyl)phenyl)-3-((2-(5-(1-hydroxyethyl)-2-methoxyphenyl)cyclohex-1-enyl)methyl)-4-methyloxazolidin-2-one] | 100 nM
5 | COc1ccc(C(C)(C)O)cc1C1=C(CN2C(=O)O[C@H](c3cc(C(F)(F)F)cc(C(F)(F)F)c3)[C@@H]2C)CCCC1 [Compound 82, (4S,5R)-5-(3,5-bis(trifluoromethyl)phenyl)-3-((2-(5-(2-hydroxypropan-2-yl)-2-methoxyphenyl)cyclohex-1-enyl)methyl)-4-methyloxazolidin-2-one] | 80 nM
6 | COc1ccc(C(C)(C)O)cc1C1=C(CN2C(=O)O[C@H](c3cc(C(F)(F)F)cc(C(F)(F)F)c3)[C@@H]2C)CC(C)(C)CC1 [Compound 104, (4S,5R)-5-(3,5-bis(trifluoromethyl)phenyl)-3-((2-(5-(2-hydroxypropan-2-yl)-2-methoxyphenyl)-5,5-dimethylcyclohex-1-enyl)methyl)-4-methyloxazolidin-2-one] | 180 nM
7 | COc1ccc(OC(F)(F)F)cc1C1=C(CN2C(=O)O[C@H](c3cc(C(F)(F)F)cc(C(F)(F)F)c3)[C@@H]2C)CC(C)(C)CC1 [Compound 117, (4S,5R)-5-(3,5-bis(trifluoromethyl)phenyl)-3-((2-(2-methoxy-5-(trifluoromethoxy)phenyl)-5,5-dimethylcyclohex-1-enyl)methyl)-4-methyloxazolidin-2-one] | 80 nM
8 | COc1cc(F)c(C(C)C)cc1C1=C(CN2C(=O)O[C@H](c3cc(C(F)(F)F)cc(C(F)(F)F)c3)[C@@H]2C)CC(F)(F)CC1 [Compound 123, (4S,5R)-5-(3,5-bis(trifluoromethyl)phenyl)-3-((5,5-difluoro-2-(4-fluoro-5-isopropyl-2-methoxyphenyl)cyclohex-1-enyl)methyl)-4-methyloxazolidin-2-one] | 20 nM
9 | COc1ccc(N(C)S(C)(=O)=O)cc1C1=C(CN2C(=O)O[C@H](c3cc(C(F)(F)F)cc(C(F)(F)F)c3)[C@@H]2C)CC(C)(C)CC1 [Compound 128, N-(3-(2-(((4S,5R)-5-(3,5-bis(trifluoromethyl)phenyl)-4-methyl-2-oxooxazolidin-3-yl)methyl)-4,4-dimethylcyclohex-1-enyl)-4-methoxyphenyl)-N-methylmethanesulfonamide] | 60 nM

Second part, the compound after the results:

Row | IC50 | SMILES
10 | 600 nM | COc1ccc(C(C)C)cc1C1=C(CN2C(=S)O[C@H](c3cc(C(F)(F)F)cc(C(F)(F)F)c3)[C@@H]2C)CC(C)(C)CC1 [Compound 15, (4S,5R)-5-(3,5-bis(trifluoromethyl)phenyl)-3-((2-(5-isopropyl-2-methoxyphenyl)-5,5-dimethylcyclohex-1-enyl)methyl)-4-methyloxazolidine-2-thione]
11 | 510 nM | COc1cc(F)c(C(C)C)cc1C1=C(CN2C(=S)O[C@H](c3cc(C(F)(F)F)cc(C(F)(F)F)c3)[C@@H]2C)CC(C)(C)CC1 [Compound 17, (4S,5R)-5-(3,5-bis(trifluoromethyl)phenyl)-3-((2-(4-fluoro-5-isopropyl-2-methoxyphenyl)-5,5-dimethylcyclohex-1-enyl)methyl)-4-methyloxazolidine-2-thione]
12 | 920 nM | COc1cc(F)c(C(C)C)cc1C1=C(CN2C(=S)O[C@H](c3cc(C(F)(F)F)cc(C(F)(F)F)c3)[C@@H]2C)CC(C)CC1 (stereo partly drawn) [Compound 26, (4S,5R)-5-(3,5-bis(trifluoromethyl)phenyl)-3-((2-(4-fluoro-5-isopropyl-2-methoxyphenyl)-5-methylcyclohex-1-enyl)methyl)-4-methyloxazolidine-2-thione]
13 | 240 nM | COc1cc(F)c(C(C)C)cc1C1=C(CN2C(=O)O[C@H](c3cc(C(F)(F)F)cc(C(F)(F)F)c3)[C@@H]2C)CCCC1 [Compound 27, (4S,5R)-5-(3,5-bis(trifluoromethyl)phenyl)-3-((2-(4-fluoro-5-isopropyl-2-methoxyphenyl)cyclohex-1-enyl)methyl)-4-methyloxazolidin-2-one]
14 | 890 nM | COc1ccc(C=O)cc1C1=C(CN2C(=O)O[C@H](c3cc(C(F)(F)F)cc(C(F)(F)F)c3)[C@@H]2C)CCCC1 [Compound 79, 3-(2-(((4S,5R)-5-(3,5-bis(trifluoromethyl)phenyl)-4-methyl-2-oxooxazolidin-3-yl)methyl)cyclohex-1-enyl)-4-methoxybenzaldehyde]
15 | 110 nM | COc1ccc(N(C)C(=O)C(C)C)cc1C1=C(CN2C(=O)O[C@H](c3cc(C(F)(F)F)cc(C(F)(F)F)c3)[C@@H]2C)CCCC1 [Compound 86, N-(3-(2-(((4S,5R)-5-(3,5-bis(trifluoromethyl)phenyl)-4-methyl-2-oxooxazolidin-3-yl)methyl)cyclohex-1-enyl)-4-methoxyphenyl)-N-methylisobutyramide]
16 | 70 nM | COc1cc(F)c(C(C)C)cc1C1=C(CN2C(=O)O[C@H](c3cc(C(F)(F)F)cc(C(F)(F)F)c3)[C@@H]2C)CC(C(C)(C)C)CC1 (stereo partly drawn) [Compound 101, (4S,5R)-5-(3,5-bis(trifluoromethyl)phenyl)-3-((5-tert-butyl-2-(4-fluoro-5-isopropyl-2-methoxyphenyl)cyclohex-1-enyl)methyl)-4-methyloxazolidin-2-one]
17 | 30 nM | COc1ccc(C(C)O)cc1C1=C(CN2C(=O)O[C@H](c3cc(C(F)(F)F)cc(C(F)(F)F)c3)[C@@H]2C)CC(C)(C)CC1 (stereo partly drawn) [Compound 103, (4S,5R)-5-(3,5-bis(trifluoromethyl)phenyl)-3-((2-(5-(1-hydroxyethyl)-2-methoxyphenyl)-5,5-dimethylcyclohex-1-enyl)methyl)-4-methyloxazolidin-2-one]
18 | 4 nM | COc1ccc(C(C)C)cc1C1=C(CN2C(=O)O[C@H](c3cc(C(F)(F)F)cc(C(F)(F)F)c3)[C@@H]2C)CC(C)(C)CC1 [Compound 107, (4S,5R)-5-(3,5-bis(trifluoromethyl)phenyl)-3-((2-(5-isopropyl-2-methoxyphenyl)-5,5-dimethylcyclohex-1-enyl)methyl)-4-methyloxazolidin-2-one]
19 | 20 nM | COc1cc(F)c(C(C)C)cc1C1=C(CN2C(=O)O[C@H](c3cc(C(F)(F)F)cc(C(F)(F)F)c3)[C@@H]2C)CCC(C)(C)C1 [Compound 109, (4S,5R)-5-(3,5-bis(trifluoromethyl)phenyl)-3-((2-(4-fluoro-5-isopropyl-2-methoxyphenyl)-4,4-dimethylcyclohex-1-enyl)methyl)-4-methyloxazolidin-2-one]
20 | 230 nM | COc1ccc(NC(C)=O)cc1C1=C(CN2C(=O)O[C@H](c3cc(C(F)(F)F)cc(C(F)(F)F)c3)[C@@H]2C)CC(C)(C)CC1 [Compound 110, N-(3-(2-(((4S,5R)-5-(3,5-bis(trifluoromethyl)phenyl)-4-methyl-2-oxooxazolidin-3-yl)methyl)-4,4-dimethylcyclohex-1-enyl)-4-methoxyphenyl)acetamide]
21 | 20 nM | COC(=O)N(C)c1ccc(OC)c(C2=C(CN3C(=O)O[C@H](c4cc(C(F)(F)F)cc(C(F)(F)F)c4)[C@@H]3C)CC(C)(C)CC2)c1 [Compound 124, methyl 3-(2-(((4S,5R)-5-(3,5-bis(trifluoromethyl)phenyl)-4-methyl-2-oxooxazolidin-3-yl)methyl)-4,4-dimethylcyclohex-1-enyl)-4-methoxyphenyl(methyl)carbamate]
